Experimental data: US6380181B1, “Synthetic catechol derivatives, method for production and use thereof” (priority 1996, dated 2002)
≈ marks a conversion by molar mass, not a printed value. Where two headings read alike, the source gives them in different places.

Columns and labels:
Type in all cases: cell-based
[1] = system: Pseudomonas aeruginosa ATCC 27853; assay: Microdilution test (MIC); settings: P. aeruginosa ATCC 27853
Procedure: (§1) The minimum inhibiting concentrations (MICs) were determined for the following bacterial strains: Pseudomonas aeruginosa NCTC 10701, NCTC 10662, SG 137, ATCC 27853, KW 799 WT and KW 799/61, E. coli DCO, DC2 and ATCC 25922, Serratia marcescens SG 621; Salmonella gallinarum ATCC 9184, Klebsiella pneumoniae ATCC 10031 and SG 117.

[2] = system: Pseudomonas aeruginosa SG 137; assay: Microdilution test (MIC); settings: P. aeruginosa SG 137
Procedure: as §1

E. coli ATCC 25922 = assay: Microdilution test (MIC)
Procedure: as §1

[3] = system: Klebsiella pneumoniae ATCC 10031; assay: Microdilution test (MIC)
Procedure: as §1

[4] = system: Stenotrophomonas maltophilia GN 12873; assay: Microdilution test (MIC)
[5] = system: Klebsiella pneumoniae KN 4401; settings: Klebsiella KN 4401
Text: (§2) In the indicator mutants, the synthesis of the respective siderophores, e.g. pyoverdin, pyochelin, enterobactin, aerobactin or yersiniabactin, or the biosynthesis of aromatic compounds, is blocked, or there is a lack of receptors for enterobactin, pyochelin or pyoverdin and for other important components for the bacterial transport of iron (e.g. the membrane proteins Cir, Fiu, FepA and TonB). Under conditions where there is a lack of iron, these mutants therefore cannot grow or can only grow to a very slight extent. In particular, the following indicator mutants were used: Pseudomonas aeruginosa PAO 6609, K 407, 690; E. coli AB 2847, Salmonella typhimurium enb-7, TA 270; Klebsiella pneumoniae KN 4401; Yersinia enterocolitica WAH; Proteus mirabilis 12 (wild); Proteus vulgaris 718 (wild) and Morganella morganii SBK3 (wild). […] The controls used were ferrioxamine E for the Pseudomonas strains, ferrioxamine G and enterobactin for the Salmonella strains, ferrichrome for the E. coli, Klebsiella and Y. enterocol. strains, and 3,4-dihydroxybenzylidene-2,4,6-trimethylaniline for Morganella morganii (see the above literature reference by R. Reissbrodt et al.).
(§3) The annotations + and (+) relate to non-specific promotion of growth.

[6] = system: Pseudomonas aeruginosa 690
Text: as §2, §3

[7] = system: Salmonella typhimurium TA 2700
Text: as §2, §3

[8] = system: Morganella morganii SBK3 (wild); settings: M. morg. SBK 3
Text: as §2, §3

[9] = system: Pseudomonas aeruginosa PAO 6609
Text: as §2, §3

[10] = system: Pseudomonas aeruginosa K 407; settings: Pseudomonas aeruginosa K407
Text: as §2, §3

[11] = system: Salmonella typhimurium enb-7
Text: as §2, §3

[12] = system: Proteus vulgaris 718 (wild); settings: Proteus vul. 718
Text: as §2, §3

E. coli AB 2847 = system: E. coli AB 2847
Text: as §2, §3

[13] = system: Proteus mirabilis 12 (wild); settings: Proteus mir. 12
Text: as §2, §3

[14] = system: E. coli DC2 (penetration mutant); settings: concentration 100 μg/ml
[15] = system: Pseudomonas aeruginosa KW 799/61; assay: Microdilution test (MIC)
Procedure: as §1
(§4) With the test germs KW 799/WT and /61 of Pseudomonas and DCO and DC2 of E. coli, the effect of improved penetration capacity on the efficacy of the substances was investigated.

[16] = system: Pseudomonas aeruginosa KW 799 WT; assay: Microdilution test (MIC); settings: P. aeruginosa KW 799/WT
Procedure: as §1, §4

[17] = system: Pseudomonas aeruginosa SG 137 (carbenicillin-resistant); assay: Agar diffusion test; settings: concentration 100 μg/ml, P. aeruginosa SG 137
[18] = system: Pseudomonas aeruginosa KW 799 WT (wild type); assay: Agar diffusion test; settings: concentration 100 μg/ml, P. aeruginosa KW799/WT
E. coli DC2 = assay: microbe, parasite or virus in culture
Procedure: as §1, §4

[19] = system: Salmonella gallinarum ATCC 9184; settings: concentration 100 μg/ml, Salmonella galinarum ATCC 9184
E. coli DC0 (wild type) = assay: Agar diffusion test; settings: concentration 100 μg/ml
[20] = system: Stenotrophomonas maltophilia GN 12873; assay: Agar diffusion test; settings: concentration 100 μg/ml
[21] = system: Pseudomonas aeruginosa NCTC 10662; assay: Microdilution test (MIC); settings: P. aeruginosa NCTC 10662
Procedure: as §1

[22] = system: Serratia marcescens SG 621; assay: Microdilution test (MIC)
Procedure: as §1

[23] = system: Pseudomonas aeruginosa KW 799/61 (penetration mutant); settings: P. aeruginosa KW799/61
[24] = system: Pseudomonas aeruginosa ATCC 27853 (wild type); assay: Agar diffusion test; settings: concentration 100 μg/ml; P. aeruginosa ATCC 27853
[25] = system: Klebsiella pneumoniae ATCC 10031; assay: Agar diffusion test; settings: concentration 100 μg/ml
[26] = system: Klebsiella pneumoniae SG 117; assay: Agar diffusion test; settings: concentration 100 μg/ml

C[C@@H](O)[C@H]1C(=O)N2C(C(=O)O)=C(S[C@@H]3CN[C@H](C(=O)N(C)C)C3)[C@H](C)[C@H]12 [Meropenem, reference compound]
MIC ([1]; Pseudomonas aeruginosa, ATCC27853): 0.2 µg/mL (≈ 0.522 µM)
MIC ([2]; Pseudomonas aeruginosa, SG137): 0.1 µg/mL (≈ 0.261 µM)
MIC (E. coli ATCC 25922; Escherichia coli, ATCC25922): < 0.05 µg/mL
MIC ([3]; ATCC10031): < 0.05 µg/mL
MIC ([4]; GN12873): > 100 µg/mL

O=C(O)c1cccc(N=Nc2ccc(O)c(O)c2)c1 [Substance 8, 3-(3,4-Dihydroxyphenylazo)benzoic Acid]
Growth areas of siderophore indicator strains (diameter) [5]: 20 mm
Growth areas of siderophore indicator strains (diameter) [6]: 0 mm
Growth areas of siderophore indicator strains (diameter) [7]: 0 mm
Growth areas of siderophore indicator strains (diameter) [8]: 20 mm
Growth areas of siderophore indicator strains (diameter) [9]: 13 mm
Growth areas of siderophore indicator strains (diameter) [10]: 15 mm
Growth areas of siderophore indicator strains (diameter) [11]: 0 mm
Growth areas of siderophore indicator strains (diameter) [12]: 20 mm
Growth areas of siderophore indicator strains (diameter) (E. coli AB 2847): 13 mm
Growth areas of siderophore indicator strains (diameter) [13]: 20 mm

COC(=O)Oc1ccc(C(=O)NN=C(C(=O)O)c2ccccc2)cc1OC(=O)OC [Substance 12, {[3,4-di(Methoxycarbonyloxy)-benzoyl]-hydrazono}-phenylacetic Acid]
Growth areas of siderophore indicator strains (diameter) [5]: 30 mm
Growth areas of siderophore indicator strains (diameter) [6]: 12 mm
Growth areas of siderophore indicator strains (diameter) [7]: 0 mm
Growth areas of siderophore indicator strains (diameter) [8]: 15 mm
Growth areas of siderophore indicator strains (diameter) [9]: 14 mm
Growth areas of siderophore indicator strains (diameter) [10]: 0 mm
Growth areas of siderophore indicator strains (diameter) [11]: 0 mm
Growth areas of siderophore indicator strains (diameter) [12]: 20 mm
Growth areas of siderophore indicator strains (diameter) (E. coli AB 2847): 14 mm
Growth areas of siderophore indicator strains (diameter) [13]: 17 mm

COC(=O)Oc1cccc(C(=O)N2COC[C@H]2C(=O)N[C@@H](C(=O)N[C@@H]2C(=O)N3[C@@H]2SC(C)(C)[C@@H]3C(=O)O)c2ccccc2)c1OC(=O)OC [Substance 30, (S)-N-[3-(2,3-di-(Methoxycarbonyloxy)-benzoyl]-oxazolidin-4-oyl]-ampicillin]
inhibition spot diameter in the agar diffusion test [14]: 31 mm
MIC values, microdilution test [15]: 0.2 µg/mL (≈ 0.285 µM)
MIC values, microdilution test [16]: 0.78 µg/mL (≈ 1.11 µM)
inhibition spot diameter in the agar diffusion test [17]: 22 mm
inhibition spot diameter in the agar diffusion test [18]: 27 mm
MIC values, microdilution test (E. coli DC2): 0.4 µg/mL (≈ 0.571 µM)
inhibition spot diameter in the agar diffusion test [19]: 29 mm
inhibition spot diameter in the agar diffusion test (E. coli DC0 (wild type)): 25 mm
inhibition spot diameter in the agar diffusion test [20]: 19 mm
MIC values, microdilution test [2]: 0.4 µg/mL (≈ 0.571 µM)
MIC values, microdilution test [21]: 6.25 µg/mL (≈ 8.92 µM)
MIC values, microdilution test (E. coli ATCC 25922): 6.25 µg/mL (≈ 8.92 µM)
MIC values, microdilution test [3]: 6.25 µg/mL (≈ 8.92 µM)
MIC values, microdilution test [22]: 50 µg/mL (≈ 71.4 µM)
MIC values, microdilution test [4]: 3.12 µg/mL (≈ 4.45 µM)
inhibition spot diameter in the agar diffusion test ([23]; concentration 100 μg/ml): 33 mm

CC(=O)Oc1cccc(C(=O)Nc2cc(NC(=O)c3cccc(OC(C)=O)c3OC(C)=O)cc(C(=O)N[C@@H](C(=O)N[C@@H]3C(=O)N4[C@@H]3SC(C)(C)[C@@H]4C(=O)O)c3ccccc3)c2)c1OC(C)=O [Substance 36, N-[3,5-bis-(2,3-diacetoxy-benzoylamino)-benzoyl]-ampicillin]
inhibition spot diameter in the agar diffusion test [14]: 19 mm
inhibition spot diameter in the agar diffusion test [17]: 25 mm
inhibition spot diameter in the agar diffusion test [18]: 25 mm
inhibition spot diameter in the agar diffusion test [24]: 19 mm
inhibition spot diameter in the agar diffusion test [19]: 23 mm
inhibition spot diameter in the agar diffusion test [25]: 17 mm
inhibition spot diameter in the agar diffusion test (E. coli DC0 (wild type)): 13 mm
inhibition spot diameter in the agar diffusion test [26]: 16 mm
inhibition spot diameter in the agar diffusion test [20]: 24 mm
MIC values, microdilution test [1]: 3.12 µg/mL (≈ 3.38 µM)
MIC values, microdilution test [2]: 0.4 µg/mL (≈ 0.433 µM)
MIC values, microdilution test [21]: 6.25 µg/mL (≈ 6.76 µM)
MIC values, microdilution test (E. coli ATCC 25922): 25 µg/mL (≈ 27.1 µM)
MIC values, microdilution test [4]: 1.56 µg/mL (≈ 1.69 µM)
inhibition spot diameter in the agar diffusion test ([23]; concentration 100 μg/ml): 29 mm

CC(=O)Oc1cccc(C(=O)NCCCC[C@H](NC(=O)c2cccc(OC(C)=O)c2OC(C)=O)C(=O)N[C@@H](C(=O)N[C@@H]2C(=O)N3[C@@H]2SC(C)(C)[C@@H]3C(=O)O)c2ccccc2)c1OC(C)=O [Substance Na-31, N-[L-2,6-bis-(2,3-diacetoxybenzoylamino)-hexanoyl]-ampicillin]
inhibition spot diameter in the agar diffusion test ([14]; listed as Na-31): 38 mm
inhibition spot diameter in the agar diffusion test ([17]; listed as Na-31): 31 mm
inhibition spot diameter in the agar diffusion test ([18]; listed as Na-31): 31 mm
inhibition spot diameter in the agar diffusion test [24]: 24 mm
inhibition spot diameter in the agar diffusion test ([19]; listed as Na-31): 34 mm
inhibition spot diameter in the agar diffusion test [25]: 21 mm
inhibition spot diameter in the agar diffusion test (E. coli DC0 (wild type); listed as Na-31): 28 mm
inhibition spot diameter in the agar diffusion test [26]: 26 mm
inhibition spot diameter in the agar diffusion test ([20]; listed as Na-31): 29 mm
MIC values, microdilution test [1]: 0.78 µg/mL (≈ 0.85 µM)
MIC values, microdilution test ([21]; listed as Na-31): 0.78 µg/mL (≈ 0.85 µM)
MIC values, microdilution test (E. coli ATCC 25922; listed as Na-31): 0.2 µg/mL (≈ 0.218 µM)
MIC values, microdilution test ([4]; listed as Na-31): 6.25 µg/mL (≈ 6.81 µM)
inhibition spot diameter in the agar diffusion test ([23]; [ ] at 50 μg/ml): [38] mm

CC(=O)Oc1cccc(C(=O)NCCCC[C@H](NC(=O)c2cccc(OC(C)=O)c2OC(C)=O)C(=O)N[C@@H](C(=O)N[C@@H]2C(=O)N3[C@@H]2SC(C)(C)[C@@H]3C(=O)O)c2ccc(O)cc2)c1OC(C)=O [Substance Na-35, N-[L-2,6-bis-(2,3-diacetoxy-benzoylamino)-hexanoyl)-amoxicillin]
inhibition spot diameter in the agar diffusion test [14]: 38 mm
inhibition spot diameter in the agar diffusion test [17]: 31 mm
inhibition spot diameter in the agar diffusion test [18]: 30 mm
inhibition spot diameter in the agar diffusion test [24]: 22 mm
inhibition spot diameter in the agar diffusion test [19]: 33 mm
inhibition spot diameter in the agar diffusion test [25]: 20 mm
inhibition spot diameter in the agar diffusion test (E. coli DC0 (wild type)): 24 mm
inhibition spot diameter in the agar diffusion test [26]: 23 mm
inhibition spot diameter in the agar diffusion test [20]: 28 mm
MIC values, microdilution test [1]: 1.56 µg/mL (≈ 1.67 µM)
MIC values, microdilution test [2]: 0.1 µg/mL (≈ 0.107 µM)
MIC values, microdilution test [21]: 1.58 µg/mL (≈ 1.69 µM)
MIC values, microdilution test (E. coli ATCC 25922): 0.2 µg/mL (≈ 0.214 µM)
MIC values, microdilution test [4]: 6.25 µg/mL (≈ 6.69 µM)
inhibition spot diameter in the agar diffusion test ([23]; [ ] at 50 μg/ml): [38] mm
